Reference: publication PMC12564265, “Navigating the Deep Eutectic Solvent Landscape: Experimental and Machine Learning Solubility Explorations of Syringic, p-Coumaric, and Caffeic Acids” (International Journal of Molecular Sciences, 2025)
Several values for one entry are separate records, joined by “and”; a condition that tells them apart may be missing. Equal entries are not always repeated.

Test: Shake-flask solubility with spectrophotometric measurement in aqueous DES mixtures
Format: physicochemical
Conditions: for Increase in the solubility compared to the neat DES: 25 °C
Method: In order to determine the solubility of the three studied phenolic acids in deep eutectic solvents, a very well-established shake-flask method coupled with spectrophotometric measurements was utilized. The initial procedure involved the preparation of various DESs, which was conducted by mixing their HBA and HBD counterparts in a glass vessel and heating the composition until the formation of a transparent, uniform liquid. […] For additional measurements, the DESs were mixed with water in varying proportions, creating aqueous DES systems. Saturated solutions of CAF, SYR, and COU were obtained by adding excess amounts of these compounds to test tubes containing either a neat deep eutectic solvent or its aqueous solution. Such samples were placed in the Orbital Shaker Incubator ES-20/60 from Biosan (Riga, Latvia) and heated for 24 h at 25 °C, 30 °C, 35 °C, and 40 °C (±0.1 °C) with simultaneous mixing at 60 rpm. Before measurements, the samples were filtered using a PTFE syringe filter from Qpore (Dallas, TX, USA) with a 0.22 μm pore size. In order to avoid possible precipitation of the saturated solutions at decreased temperatures, the test tubes, syringes, pipette tips, and filters were kept at a temperature identical to that of the samples. The spectrophotometric measurements required the preparation of calibration curves for the three APIs. This involved the preparation of a stock solution of each compound in methanol, which was later successfully diluted, and the obtained solutions of varying concentrations were measured using an A360 spectrophotometer from AOE Instruments (Shanghai, China). The wavelength range was set to 200-500 nm, and the resolution was 1 nm. The analytical wavelengths were determined to be 324 nm for caffeic acid, 273 nm for syringic acid, and 308 nm for p-coumaric acid. The final regression equations, obtained after averaging three distinct sets of measurements, are collected in Table 2 together with determination coefficients and limits of detection (LOD) and quantification (LOQ) for the calibration curves. The measurements of the samples were conducted with the same spectrophotometer and identical settings. Methanol was used for the dilution of the samples so that they could remain within the linearity range of the method. Complete spectra of the samples were recorded, but for the solubility determination, the absorbance values at a specific analytical wavelength were considered. These values were combined with the corresponding regression equations of the calibration curves and served for the calculation of the concentration of the three phenolic acids in the studied samples. The densities of such samples were also measured, and for this task 1 mL of each sample was weighed to a precision of 0.1 mg using an AS 110 R2.PLUS analytical balance from […] (Radom, Poland). The obtained densities enabled the calculation of mole fractions of CAF, SYR, and COU dissolved in the studied DESs. For each considered system, three distinct measurements were conducted, and the results were averaged.

Compound: O=C(O)C=Cc1ccc(O)cc1 [p-coumaric acid, 4-hydroxycinnamic acid]
- Mole fraction solubility (Bet – GLY 1:2 + water, x*DES 0.9, 30°C): 0.1149±0.0011 mole fraction
- Mole fraction solubility (Bet – GLY 1:2 + water, x*DES 0.9, 35°C): 0.1464±0.0025 mole fraction
- Mole fraction solubility (Bet – GLY 1:2 + water, x*DES 0.9, 40°C): 0.1934±0.0021 mole fraction
- Mole fraction solubility (Bet – GLY 1:2, x*DES 1.0 (neat DES), 25°C): 0.0898±0.0003 mole fraction
- Mole fraction solubility (Bet – GLY 1:2, x*DES 1.0 (neat DES), 30°C): 0.1090±0.0010 mole fraction
- Mole fraction solubility (Bet – GLY 1:2, x*DES 1.0 (neat DES), 35°C): 0.1389±0.0009 mole fraction
- Mole fraction solubility (Bet – GLY 1:2, x*DES 1.0 (neat DES), 40°C): 0.1842±0.0017 mole fraction
- Increase in the solubility compared to the neat DES (Bet-GLY 1:2, x*DES = 0.9 (xwater = 0.1)): 3%
- Mole fraction solubility (ChCl – TEG 1:2 + water, x*DES 0.1, 25°C): 0.0131±0.0002 mole fraction
- Mole fraction solubility (ChCl – TEG 1:2 + water, x*DES 0.1, 30°C): 0.0168±0.0002 mole fraction
- Mole fraction solubility (ChCl – TEG 1:2 + water, x*DES 0.1, 35°C): 0.0216±0.0002 mole fraction
- Mole fraction solubility (ChCl – TEG 1:2 + water, x*DES 0.1, 40°C): 0.0287±0.0003 mole fraction
- Mole fraction solubility (ChCl – TEG 1:2 + water, x*DES 0.2, 25°C): 0.0283±0.0002 mole fraction
- Mole fraction solubility (ChCl – TEG 1:2 + water, x*DES 0.2, 30°C): 0.0357±0.0002 mole fraction
- Mole fraction solubility (ChCl – TEG 1:2 + water, x*DES 0.2, 35°C): 0.0459±0.0004 mole fraction
- Mole fraction solubility (ChCl – TEG 1:2 + water, x*DES 0.2, 40°C): 0.0604±0.0004 mole fraction
- Mole fraction solubility (ChCl – TEG 1:2 + water, x*DES 0.3, 25°C): 0.0412±0.0004 mole fraction
- Mole fraction solubility (ChCl – TEG 1:2 + water, x*DES 0.3, 30°C): 0.0506±0.0006 mole fraction
- Mole fraction solubility (ChCl – TEG 1:2 + water, x*DES 0.3, 35°C): 0.0649±0.0005 mole fraction
- Mole fraction solubility (ChCl – TEG 1:2 + water, x*DES 0.3, 40°C): 0.0862±0.0009 mole fraction
- Mole fraction solubility (ChCl – TEG 1:2 + water, x*DES 0.4, 25°C): 0.0512±0.0003 mole fraction
- Mole fraction solubility (ChCl – TEG 1:2 + water, x*DES 0.4, 30°C): 0.0664±0.0007 mole fraction
- Mole fraction solubility (ChCl – TEG 1:2 + water, x*DES 0.4, 35°C): 0.0861±0.0005 mole fraction
- Mole fraction solubility (ChCl – TEG 1:2 + water, x*DES 0.4, 40°C): 0.1133±0.0008 mole fraction
- Mole fraction solubility (ChCl – TEG 1:2 + water, x*DES 0.5, 25°C): 0.0632±0.0004 mole fraction
- Mole fraction solubility (ChCl – TEG 1:2 + water, x*DES 0.5, 30°C): 0.0790±0.0006 mole fraction
- Mole fraction solubility (ChCl – TEG 1:2 + water, x*DES 0.5, 35°C): 0.1033±0.0010 mole fraction
- Mole fraction solubility (ChCl – TEG 1:2 + water, x*DES 0.5, 40°C): 0.1413±0.0012 mole fraction
- Mole fraction solubility (ChCl – TEG 1:2 + water, x*DES 0.6, 25°C): 0.0774±0.0005 mole fraction
- Mole fraction solubility (ChCl – TEG 1:2 + water, x*DES 0.6, 30°C): 0.0946±0.0004 mole fraction
- Mole fraction solubility (ChCl – TEG 1:2 + water, x*DES 0.6, 35°C): 0.1258±0.0012 mole fraction
- Mole fraction solubility (ChCl – TEG 1:2 + water, x*DES 0.6, 40°C): 0.1692±0.0013 mole fraction
- Mole fraction solubility (ChCl – TEG 1:2 + water, x*DES 0.7, 25°C): 0.0885±0.0008 mole fraction
- Mole fraction solubility (ChCl – TEG 1:2 + water, x*DES 0.7, 30°C): 0.1119±0.0007 mole fraction
- Mole fraction solubility (ChCl – TEG 1:2 + water, x*DES 0.7, 35°C): 0.1523±0.0007 mole fraction
- Mole fraction solubility (ChCl – TEG 1:2 + water, x*DES 0.7, 40°C): 0.2060±0.0014 mole fraction
- Mole fraction solubility (ChCl – TEG 1:2 + water, x*DES 0.8, 25°C): 0.1016±0.0009 mole fraction
- Mole fraction solubility (ChCl – TEG 1:2 + water, x*DES 0.8, 30°C): 0.1348±0.0012 mole fraction
- Mole fraction solubility (ChCl – TEG 1:2 + water, x*DES 0.8, 35°C): 0.1803±0.0006 mole fraction
- Mole fraction solubility (ChCl – TEG 1:2 + water, x*DES 0.8, 40°C): 0.2401±0.0023 mole fraction
- Mole fraction solubility (ChCl – TEG 1:2 + water, x*DES 0.9, 25°C): 0.1054 mole fraction and 0.1054±0.0008 mole fraction
- Mole fraction solubility (ChCl – TEG 1:2 + water, x*DES 0.9, 30°C): 0.1368±0.0008 mole fraction
- Mole fraction solubility (ChCl – TEG 1:2 + water, x*DES 0.9, 35°C): 0.1857±0.0007 mole fraction
- Mole fraction solubility (ChCl – TEG 1:2 + water, x*DES 0.9, 40°C): 0.2507±0.0018 mole fraction
- Mole fraction solubility (ChCl – TEG 1:2, x*DES 1.0 (neat DES), 25°C): 0.0997±0.0009 mole fraction
- Mole fraction solubility (ChCl – TEG 1:2, x*DES 1.0 (neat DES), 30°C): 0.1304±0.0012 mole fraction
- Mole fraction solubility (ChCl – TEG 1:2, x*DES 1.0 (neat DES), 35°C): 0.1773±0.0014 mole fraction
- Mole fraction solubility (ChCl – TEG 1:2, x*DES 1.0 (neat DES), 40°C): 0.2433±0.0022 mole fraction
- Increase in the solubility compared to the neat DES (ChCl-TEG 1:2, x*DES = 0.9 (xwater = 0.1)): 6%
- Solubility increase between 25 °C and 40 °C (neat DES (x*DES = 1.0) involving betaine (Bet-GLY 1:2)): 205%
- Solubility increase between 25 °C and 40 °C (neat DES (x*DES = 1.0) with choline chloride (ChCl-TEG 1:2)): 244%
